The melting point is the temperature of the solid-liquid transition. The term pIC50 denotes −log10 of the IC50, conventionally taken in molar units. What is called LD50 is the dose expected to kill half of the subjects tested. A lower LD50 goes with greater toxicity.

Experimental findings from patent US7345068B2, “Aromatic amino acid derivatives and medicinal compositions” (priority 2002, dated 2008) are described below.

Structures are written as SMILES. pIC50: −log10 of the molar value. Some results are limits rather than exact numbers.

One series has as its system sarcoma 180 cells. Briefly: Sarcoma 180 subcutaneous implant in mice, tumor weight. In kind it is in vivo, ICR mice. The settings on record: 100 mg/kg intravenously for 7 days; tumor weight 10 days after implantation. The protocol: In an inguinal region of ICR mice, 1×10^6 sarcoma 180 cells were implanted subcutaneously. After 24 hours from the implantation, administration of the test compounds (Example 6-3) and Example 49-3)) was started, which was continued intravenously for 7 days. Each of the test compounds was dissolved in a physiologic saline containing 10% DMSO and 10% Tween 80 so that the amount of the test compound became 100 mg/kg, which was intravenously administered in an amount of 0.1 ml per 10 g of body weight. After 10 days from the implantation, tumor weight was measured and a proliferation inhibiting rate was calculated by the following formula to be compared with that of nontreated controls. Proliferation inhibiting rate (T/C)=[1−(average tumor weight of the group added with the test compound/average tumor weight of the control group)]×100

In a further series the target is T1, LAT1 (Homo sapiens, UniProt Q01650).
T1 construct: Using human bladder cancer cell strain T24 cells, in which LAT1 only was strongly expressed; endogenous in cells; host or cells: T24 human bladder cancer cells
Briefly: LAT1 inhibiting activity: inhibition of 14C-L-leucine uptake in T24 cells. In kind it is cell-based. The settings on record: 1 μM 14C-Leu, 1-minute uptake. The protocol: 1) To each of the weighed test compounds, DMSO was added to prepare a 100 mM solution or suspension as a DMSO stock. In an assay, the stock was diluted 1,000 fold with a buffer described below. The final concentration of the test compound was 100 μM and the final concentration of DMSO was 0.1%.
2) The LAT1 inhibiting activity of the test compound was determined in the following manner. Using human bladder cancer cell strain T24 cells, in which LAT1 only was strongly expressed, inhibiting activity of each test compound against “^14C”-L-leucine uptake was determined as the LAT1 inhibiting activity.
T24 cells in a logarithmic growth-phase were transferred to a 24-well plate at 0.8×10^5 cell/well and cultured at 37° C. for 2 days. After the plate was incubated at 37° C. on a water bath for 5 minutes, the fixed cells were washed three times with a Hank's balanced salt solution (HBSS: 25 mM HEPES, 125 mM choline chloride, 5.6 mM glucose, 4.8 mM KCl, 1.2 mM MgSO4, 1.2 mM KH2PO4, 1.3 mM CaCl2, pH 7.4) warmed to 37° C., not containing Na^+, to which 500 μl of HBSS (37° C.) was added. Then, further incubation was carried out for 7 minutes.
After the incubation was finished, a supernatant was replaced with HBSS containing 1 μM ^14C-Leu and 100 μM test compound (37° C.), followed by 1-minute uptake. Then, the cells were washed three times with HBSS of 4° C. The washed cells were added with 500 μl of 0.1 N NaOH to dissolve the cells for 20 minutes. The cell solution was transferred to a vial, to which 3 ml of a scintillator was added to measure the radioactivity with a liquid scintillation counter.
Inhibition % was calculated by the following formula. Inhibition %=100−(radioactivity of the well added with the test compound)/(radioactivity of the well not added with the test compound)×100

Series [1] can be described thus: Acute toxicity test, intravenous administration of mice (LD50). The settings on record: mouse, in vivo. Here is the method:
Further, with respect to the compounds of Examples 77-79 and Example 98, an acute toxicity test for intravenous administration of mice were carried out to obtain LD50.

T1 sequence (Q01650 whole entry): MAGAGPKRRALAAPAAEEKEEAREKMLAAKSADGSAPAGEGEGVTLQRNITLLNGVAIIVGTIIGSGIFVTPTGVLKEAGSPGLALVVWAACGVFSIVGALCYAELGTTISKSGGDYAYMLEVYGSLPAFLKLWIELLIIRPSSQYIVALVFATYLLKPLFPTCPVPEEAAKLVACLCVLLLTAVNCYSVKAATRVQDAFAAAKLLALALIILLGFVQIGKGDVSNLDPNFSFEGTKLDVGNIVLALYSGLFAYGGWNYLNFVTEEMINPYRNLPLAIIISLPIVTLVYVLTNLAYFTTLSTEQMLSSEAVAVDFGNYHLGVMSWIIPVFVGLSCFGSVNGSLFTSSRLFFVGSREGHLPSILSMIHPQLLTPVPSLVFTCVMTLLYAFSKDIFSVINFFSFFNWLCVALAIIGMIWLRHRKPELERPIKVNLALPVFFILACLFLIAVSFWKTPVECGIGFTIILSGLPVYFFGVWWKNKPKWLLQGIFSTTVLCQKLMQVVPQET
T1 sequence (P08195 102-630 partner): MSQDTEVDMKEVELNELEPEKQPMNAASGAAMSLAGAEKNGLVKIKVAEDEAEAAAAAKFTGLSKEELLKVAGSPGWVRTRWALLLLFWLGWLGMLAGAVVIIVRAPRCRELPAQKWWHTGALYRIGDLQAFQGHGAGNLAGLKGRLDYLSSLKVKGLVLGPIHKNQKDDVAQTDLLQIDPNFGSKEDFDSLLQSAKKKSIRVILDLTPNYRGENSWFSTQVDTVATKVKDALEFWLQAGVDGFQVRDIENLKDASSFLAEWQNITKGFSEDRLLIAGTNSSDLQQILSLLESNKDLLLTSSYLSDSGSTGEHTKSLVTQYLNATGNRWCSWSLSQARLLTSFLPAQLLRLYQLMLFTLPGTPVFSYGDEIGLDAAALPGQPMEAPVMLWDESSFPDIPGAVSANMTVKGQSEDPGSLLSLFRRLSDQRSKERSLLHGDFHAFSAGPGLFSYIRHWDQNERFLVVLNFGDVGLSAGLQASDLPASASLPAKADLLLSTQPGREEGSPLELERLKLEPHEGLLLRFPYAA

Take `COC(=O)[C@@H](N)Cc1cc(Cl)c(OCc2cccc3nc(-c4ccccc4)oc23)c(Cl)c1.Cl` [Example 6-3), 3,5-Dichloro-O-[(2-phenyl)-benzoxazol-7-yl]methyl-L-tyrosine methyl ester hydrochloride]: the melting point is 225 to 225.5 °C (dec.). This compound also displayed a proliferation inhibiting rate in the series on sarcoma 180 cells of 52.2%.

Turning to `NC1(C(=O)O)CC2CCC1C2` (stereo not drawn) [BCH, 2-aminobicyclo-(2,2,1)-heptane-2-carboxylic acid, reference compound], the pIC50 against LAT1 is 4.00. Besides, the LD50 in series [1] was at least 300 mg/kg.

Turning to `COC(=O)[C@@H](N)Cc1cccc(Oc2ccc3ccccc3c2)c1.Cl` [Example 49-3), 3-(2-naphthyloxy)-L-phenylalanine methyl ester hydrochloride], the melting point was 209 to 211 °C (dec.). The proliferation inhibiting rate in the series on sarcoma 180 cells is on record as 41.3%.
